Results published in patent publication US20130337564A1, “Treatment of Pluripotent Cells” (Janssen Biotech, Inc., priority 2012, published 2013).
“And” between values parts separate entries of the source, which are not always exact repeats. Equal entries are not always repeated.

How the values were obtained:
Assay type in all cases: cell-based
[1] = tested on: human embryonic stem cells (H9 or H1 lines); assay: Plate reader (MTS) proliferation assay; conditions: for activity at 10 µM: Homo sapiens, Embryonic stem cell, 96 h; for activity at 10 µM / % Control Value (proliferation): 10 μM test compound with 100 ng/ml activin A on days 1-2, MTS OD490 on day 4, vs Activin A/Wnt3a positive control, strong and moderate hits; for Average (of Raw Data): plate reader raw signal, mean of replicate wells, proliferation of human embryonic stem cells; for Average: average of replicate raw data; for Raw Data: replicate wells, plate reader proliferation screen of GSK-3B inhibitors
Experimental: Maintenance of human embryonic stem cells (H9 or H1 lines) was conducted as described in Example 1. Colonies of cells were maintained in an undifferentiated, pluripotent state with passage on average every four days. Passage was performed by exposing cell cultures to a solution of collagenase (1 mg/ml; Sigma-Aldrich) for 10 to 30 minutes at 37° C. followed by gentle scraping with a pipette tip to recover cell clusters. Clusters were allowed to sediment and washed to remove residual collagenase. Cell clusters were split at a ratio of 1:3 monolayer area for routine culture or a 1:1 ratio for immediate assay. The human embryonis stem cell lines used for these examples were maintained at passage numbers less than 50 and routinely evaluated for normal karyotypic phenotype as well as absence of mycoplasm contamination.
Cell clusters used in assay were evenly resuspended in normal culture medium and plated into MATRIGEL-coated 96-well Packard VIEWPLATES (PerkinElmer) in volumes of 100 μl/well. MEF conditioned medium supplemented with 8 ng/ml bFGF) was used for initial plating and recovery. Daily feeding was conducted by aspirating spent culture medium from each well and replacing with an equal volume of fresh medium. Plates were maintained at 37° C. in a humidified box, 5% CO2 throughout the duration of assay.
Primary screening assays were initiated by aspirating culture medium from each well followed by three washes in PBS to remove residual growth factors and serum. Test volumes of 80-100 μl per well were added back containing DMEM:F12 base medium (Invitrogen) supplemented with 0.5% FCS (HyClone) and 100 ng/ml activin A (R&D Biosystems) and 10 μM test compound. Positive control wells contained the same medium substituting 10-20 ng/ml Wnt3a (R&D Biosystems). Negative control wells contained base medium with 0.5% FCS without activin A or Wnt3a. Screening compounds were tested in triplicate. Wells were aspirated and fed again with identical solutions on day 2 of the assay. On days 3 and 4, all assay wells were aspirated and converted to DMEM:F 12 supplemented with 2% FCS and 100 ng/ml activin A with the exception of negative control wells which were maintained in DMEM:F12 base medium with 2% FCS.
On day 4 of assay, 15-20 μl of MTS (Promega) was added to each well and plates were incubated at 37° C. for 1.5 to 4 hours. Densitometric readings at OD490 were determined using a Molecular Devices spectrophotometer plate reader. Average readings for replicate sets were calculated along with standard deviation and coefficient of variation. Experimental wells were compared to the Activin A/Wnt3a positive control to calculate a percent control value as a measure of proliferation.
Strong hits are defined as greater than or equal to 120% of control values; moderate hits are defined as falling within the interval of 60-120% of control values. A significant number of compounds induce a proliferative response in this assay.

[2] = tested on: HNF-3beta expression in human embryonic stem cells (H9 line); assay: High content screening assay: HNF-3beta protein expression (differentiation); conditions: for fold induction at 10 µM: Homo sapiens, Embryonic stem cell, 10 μM test compound with 100 ng/ml activin A on days 1-2, H9, total intensity by IN Cell Analyzer, strong and moderate hits, read-out: HNF3β Expression, Fold over Wnt 3a/AA control
Outline: (§1)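 H9 hESCs on MATRIGEL treated days 1-2 with 10 μM compound in DMEM:F12, 0.5% FCS, 100 ng/ml activin A; days 3-4 with 2% FCS plus activin A without compound. Fixed cells immunostained for Sox17 or HNF-3beta with Draq5 nuclear counterstain. Cell number and staining intensity quantified by high-content imaging, 12 fields/well.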

[3] = tested on: human embryonic stem cells (H9 line); assay: High content screening assay: cell number (proliferative response)
Outline: as §1

[4] = cell number in the wells analysed for HNF-3b expression
[5] = cell number in the wells analysed for SOX-17 expression

In the case of O=C1NC(=O)C(c2cn(CCCO)c3ncccc23)=C1c1ccccc1C(F)(F)F [Compound 16, 3-[1-(3-Hydroxypropyl)-1H-pyrrolo[2,3-b]pyridin-3-yl]-4-[2-(trifluoromethyl)phenyl]-1H-pyrrole-2,5-dione], the activity at 10 µM [1] is reported as 85.5%, the “Average (of Raw Data)” value [1] is reported as 0.8575 and the fold induction at 10 µM [2] is reported as 1.1.
In the case of O=C1NC(=O)C(c2cn(CCCO)c3ncccc23)=C1c1cccs1 [Compound 17, 3-[1-(3-Hydroxypropyl)-1H-pyrrolo[2,3-b]pyridin-3-yl]-4-thiophen-2-yl-1H-pyrrole-2,5-dione], the “Average (of Raw Data)” value [1] is reported as 0.4114, the “Proliferative Response Total cells” value [3, 4] is reported as 83 and the “Proliferative Response Total cells” value [3, 5] is reported as 158. The “HNF-3b Expression Total Intensity” value [2] was 14201404.
For O=C1NC(=O)C(c2cn(CCCO)c3ncccc23)=C1c1cc(Cl)sc1Cl [Compound 18, 3-(2,5-Dichlorothiophen-3-yl)-4-[1-(3-hydroxypropyl)-1H-pyrrolo[2,3-b]pyridin-3-yl]-1H-pyrrole-2,5-dione], the “Average (of Raw Data)” value [1] was 0.1442, the “Proliferative Response Total cells” value [3, 4] was 4 and the “Proliferative Response Total cells” value [3, 5] was 3. For the same molecule, the “HNF-3b Expression Total Intensity” value [2] was 28439.
For COCCCn1cc(C2=C(c3ccccc3O)C(=O)NC2=O)c2cccnc21 [Compound 22, 3-(2-Hydroxyphenyl)-4-{1-[3-(methyloxy)propyl]-1H-pyrrolo[2,3-b]pyridin-3-yl}-1H-pyrrole-2,5-dione], the “Average (of Raw Data)” value [1] was 0.3385, the “Proliferative Response Total cells” value [3, 4] was 69 and the “Proliferative Response Total cells” value [3, 5] was 33. The “HNF-3b Expression Total Intensity” value [2] was 13689421.
With COc1ccccc1C1=C(c2cn(-c3ccc4ccccc4c3)c3ncccc23)C(=O)NC1=O [Compound 23, 3-[2-(Methyloxy)phenyl]-4-(1-naphthalen-2-yl-1H-pyrrolo[2,3-b]pyridin-3-yl)-1H-pyrrole-2,5-dione] the “Average (of Raw Data)” value [1] was 0.4714, the “Proliferative Response Total cells” value [3, 4] was 399 and the “Proliferative Response Total cells” value [3, 5] was 88. The “HNF-3b Expression Total Intensity” value [2] was 65100086.
For COc1ccccc1C1=C(c2cn(CCCNC(=O)OC(C)(C)C)c3ncccc23)C(=O)NC1=O [Compound 26, 1,1-Dimethylethyl [3-(3-{4-[2-(methyloxy)phenyl]-2,5-dioxo-2,5-dihydro-1H-pyrrol-3-yl}-1H-pyrrolo[2,3-b]pyridin-1-yl)propyl]carbamate], the “Average (of Raw Data)” value [1] was 0.3611, the “Proliferative Response Total cells” value [3, 4] was 136 and the “Proliferative Response Total cells” value [3, 5] was 109. The “HNF-3b Expression Total Intensity” value [2] was 15725984.
With COc1ccccc1C1=C(c2cn(CCCNC(C)=O)c3ncccc23)C(=O)NC1=O [Compound 27, N-[3-(3-{4-[2-(Methyloxy)phenyl]-2,5-dioxo-2,5-dihydro-1H-pyrrol-3-yl}-1H-pyrrolo[2,3-b]pyridin-1-yl)propyl]acetamide] the “Average (of Raw Data)” value [1] was 0.1152, the “Proliferative Response Total cells” value [3, 4] was 5 and the “Proliferative Response Total cells” value [3, 5] was 5. For the same molecule, the “HNF-3b Expression Total Intensity” value [2] was 0.
With O=C1NC(=O)C(c2cn(CCCO)c3ncccc23)=C1c1cnccn1 [Compound 47, 3-[1-(3-Hydroxypropyl)-1H-pyrrolo[2,3-b]pyridin-3-yl]-4-pyrazin-2-yl-1H-pyrrole-2,5-dione] the fold induction at 10 µM ([3]; Homo sapiens, Embryonic stem cell, 10 μM test compound with 100 ng/ml activin A on days 1-2, H9, total cell number by IN Cell Analyzer, strong and moderate hits, read-out: Proliferative Response, Fold over Wnt 3a/AA control) was 1.37, the “Proliferative Response Total cells” value [3, 4] was 6908 and the “Proliferative Response Total cells” value [3, 5] was 10447. For the same molecule, the fold induction at 10 µM [2] was 1.22 and the “HNF-3b Expression Total Intensity” value [2] was 560475000.
In the case of O=C1NC(=O)C(c2nn(CCCO)c3ccccc23)=C1c1cn(-c2cccnc2)c2ccc(Cl)cc12 [Compound 52, 3-(5-Chloro-1-pyridin-3-yl-1H-indol-3-yl)-4-[1-(3-hydroxypropyl)-1H-indazol-3-yl]-1H-pyrrole-2,5-dione], the activity at 10 µM [1] is reported as 136% and the Average [1] is reported as 1.0617.
CN(C)CCCn1c2c(c3ccccc31)C1=C(C(=O)NC1=O)N(c1cccc(Cl)c1)C2 [Compound 101, 4-(3-Chlorophenyl)-6-[3-(dimethylamino)propyl]-5,6-dihydropyrrolo[3′,4′:5,6]pyrido[3,4-b]indole-1,3(2H,4H)-dione] gave an activity at 10 µM [1] of 155% and an Average [1] of 1.0316.
With CCN1CCOCCOCCn2cc(c3ccccc32)C2=C(C(=O)NC2=O)c2cn(c3ccccc23)CC1 [Compound 103, 14-Ethyl-6,7,9,10,13,14,15,16-octahydro-12H,23H-5,26:17,22-di(metheno)dibenzo[k,q]pyrrolo[3,4-n][1,4,7,10,19]dioxatriacyclohenicosine-23,25(24H)-dione] the “% Control Value (proliferation)” value [1] was 68.7%, the Average [1] was 0.5236 and the “Raw Data” value [1] was 0.7125 and 0.3347.
O=C1NC(=O)C(c2cn(CCOCCOCCO)c3ccccc23)=C1c1cn(CCO)c2ccccc12 [Compound 110, 3-[1-(2-Hydroxyethyl)-1H-indol-3-yl]-4-{1-[2-({2-[(2-hydroxyethyl)oxy]ethyl}oxy)ethyl]-1H-indol-3-yl}-1H-pyrrole-2,5-dione] showed an activity at 10 µM [1] of 161% and an Average [1] of 1.0686.
CN1CCN(C)CCn2cc(c3ccccc32)C2=C(C(=O)NC2=O)c2cn(c3ccccc23)CC1 [Compound 111, 8,11-Dimethyl-6,7,8,9,10,11,12,13-octahydro-20H-5,23:14,19-di(metheno)dibenzo[k,q]pyrrolo[3,4-n][1,4,7,10]tetraazacyclooctadecine-20,22(21H)-dione] was tested, and the “% Control Value (proliferation)” value [1] was 128.7%, the Average [1] was 0.8784 and the “Raw Data” value [1] was 1.0689 and 0.6879.
CN1CCOCCOCCN(C)CCn2cc(c3ccccc32)C2=C(C(=O)NC2=O)c2cn(c3ccccc23)CC1 [Compound 112, 12,21-Dimethyl-11,12,13,14,16,17,20,21,22,23-decahydro-1H,10H,19H-9,4:24,29-di(metheno)dibenzo[k,q]pyrrolo[3,4-n][1,4,7,10,19,22]dioxatetraazacyclotetracosine-1,3(2H)-dione] was tested, and the “% Control Value (proliferation)” value [1] was 132.8%, the Average [1] was 0.9024 and the “Raw Data” value [1] was 1.0444 and 0.7603.
In the case of O=C1NC(=O)C2=C1c1cn(c3ccccc13)CCOCCOCCN(Cc1cccs1)CCn1cc2c2ccccc21 [Compound 133, 14-(2-Thienylmethyl)-6,7,9,10,13,14,15,16-octahydro-12H,23H-5,26:17,22-di(metheno)dibenzo[k,q]pyrrolo[3,4-n][1,4,7,10,19]dioxatriazacyclohenicosine-23,25(24H)-dione], the “% Control Value (proliferation)” value [1] is reported as 149.3%, the Average [1] is reported as 1.0839 and the “Raw Data” value [1] is reported as 1.0786 and 1.0891.
O=C1NC(=O)C2=C1c1cn(c3ccccc13)CCOCCOCCN(Cc1cccc3ccccc13)CCn1cc2c2ccccc21 [Compound 136, 14-(Naphthalen-1-ylmethyl)-6,7,9,10,13,14,15,16-octahydro-12H,23H-5,26:17,22-di(metheno)dibenzo[k,q]pyrrolo[3,4-n][1,4,7,10,19]dioxatriazacyclohenicosine-23,25(24H)-dione] was tested, and the “% Control Value (proliferation)” value [1] was 128.8% and 125.7%, the Average [1] was 0.9509 and 0.9309 and the “Raw Data” value [1] was 0.8618 and 1.0400 and 0.8430 and 1.0187.
With O=C1NC(=O)C(c2cn(CCOCCOCCNC3CCCc4ccccc43)c3ccccc23)=C1c1cn(CCNC2CCCc3ccccc32)c2ccccc12 (stereo not shown) [Compound 144, 3-{1-[2-(1,2,3,4-Tetrahydronaphthalen-1-ylamino)ethyl]-1H-indol-3-yl}-4-(1-{2-[(2-{[2-(1,2,3,4-tetrahydronaphthalen-1-ylamino)ethyl]oxy}ethyl)oxy]ethyl}-1H-indol-3-yl)-1H-pyrrole-2,5-dione] the activity at 10 µM [1] was 84%, the Average [1] was 1.2160 and the “Proliferative Response Total cells” value [3, 4] was 6833. For the same molecule, the “Proliferative Response Total cells” value [3, 5] was 7990 and the “HNF-3b Expression Total Intensity” value [2] was 231745000.
